Laboratory results as given in PubChem BioAssay (NCI).
“And” between values parts separate entries of the source, which are not always exact repeats. Identical values can stand only once.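 1) Cells in 96-well plates. 2) Compound, 48 h, 5 concentrations. 3) Linear interpolation between surrounding doses. 4) Unreached endpoint = highest concentration. GI50 = concentration required for 50% inhibition of growth. TGI denotes the concentration required for complete inhibition of growth.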

Tests used:
Assay in all cases: NCI tumour cell line growth inhibition, 48 h
[1] = system: DU-145 prostate
[2] = system: HCT-116 colon
[3] = system: K-562 leukemia
[4] = system: MCF7 breast
[5] = system: NCI-H23 lung
[6] = system: NCI-H460 lung
[7] = system: NCI-H522 lung
[8] = system: PC-3 prostate
[9] = system: SK-MEL-2 melanoma
[10] = system: SK-OV-3 ovarian

**Q.** For `O=NNc1ccc2ccccc2n1`, which TGI [1] is on record?
**A.** > 100 µM

**Q.** What about the TGI [2] of the same molecule?
**A.** > 100 µM

**Q.** What about the TGI [3] of the same molecule?
**A.** > 100 µM

**Q.** And the TGI [4]?
**A.** > 100 µM

**Q.** What about the TGI [5] of the same molecule?
**A.** > 100 µM

**Q.** What about the TGI [6] of the same molecule?
**A.** > 100 µM

**Q.** What about the TGI [7] of the same molecule?
**A.** > 100 µM

**Q.** And the TGI [8]?
**A.** > 100 µM

**Q.** And the TGI [9]?
**A.** > 100 µM

**Q.** And the TGI [10]?
**A.** > 100 µM

**Q.** With `CCCCCCCCCCCCCCCCCCOC[C@H](COP(=O)(O)O[C@H]1[C@H](O)[C@@H](O)[C@H](O)C[C@H]1O)OC` as the molecule, how does the GI50 [1] read?
**A.** > 100 µM and 17.3 µM

**Q.** And the TGI [1]?
**A.** > 100 µM and 34.5 µM

**Q.** And the GI50 [2]?
**A.** > 100 µM and 15.8 µM

**Q.** What about the TGI [2] of the same molecule?
**A.** > 100 µM and 30.7 µM

**Q.** What about the GI50 [3] of the same molecule?
**A.** > 100 µM and 18.4 µM

**Q.** And the TGI [3]?
**A.** > 100 µM and 55.2 µM

**Q.** What about the GI50 [4] of the same molecule?
**A.** > 100 µM and 17.3 µM

**Q.** And the TGI [4]?
**A.** > 100 µM and 32.2 µM

**Q.** And the GI50 [5]?
**A.** > 100 µM and 19.3 µM

**Q.** What about the TGI [5] of the same molecule?
**A.** > 100 µM and 35 µM

**Q.** And the GI50 [6]?
**A.** 79.4 µM and 11.7 µM

**Q.** And the TGI [6]?
**A.** > 100 µM and 26.1 µM

**Q.** What about the GI50 [7] of the same molecule?
**A.** 36.5 µM and 11.4 µM

**Q.** What about the TGI [7] of the same molecule?
**A.** > 100 µM and 25.4 µM

**Q.** And the GI50 [8]?
**A.** 7.44 µM and 2.94 µM

**Q.** What about the TGI [8] of the same molecule?
**A.** 43.3 µM and 14.1 µM

**Q.** What about the GI50 [9] of the same molecule?
**A.** > 100 µM and 16.3 µM

**Q.** What about the TGI [9] of the same molecule?
**A.** > 100 µM and 30.2 µM

**Q.** What about the GI50 [10] of the same molecule?
**A.** > 100 µM and 17.4 µM

**Q.** What about the TGI [10] of the same molecule?
**A.** > 100 µM and 34 µM

**Q.** How did the GI50 [1] turn out when `COc1ccc2c(c1)NC1=C(C(=O)OC1)C2c1cc(OC)c(OC)c(OC)c1` (centres undefined) was run?
**A.** < 0.01 µM

**Q.** What about the TGI [1] of the same molecule?
**A.** < 0.01 µM

**Q.** And the GI50 [2]?
**A.** < 0.01 µM

**Q.** And the TGI [2]?
**A.** > 100 µM

**Q.** What about the GI50 [3] of the same molecule?
**A.** < 0.01 µM

**Q.** And the TGI [3]?
**A.** > 100 µM

**Q.** And the GI50 [4]?
**A.** < 0.01 µM

**Q.** And the TGI [4]?
**A.** > 100 µM

**Q.** What about the GI50 [5] of the same molecule?
**A.** < 0.01 µM

**Q.** And the TGI [5]?
**A.** > 77 µM

**Q.** And the GI50 [6]?
**A.** < 0.01 µM

**Q.** What about the TGI [6] of the same molecule?
**A.** > 100 µM

**Q.** What about the GI50 [7] of the same molecule?
**A.** < 0.01 µM

**Q.** What about the TGI [7] of the same molecule?
**A.** < 0.01 µM

**Q.** And the GI50 [8]?
**A.** < 0.01 µM

**Q.** What about the TGI [8] of the same molecule?
**A.** > 100 µM

**Q.** And the GI50 [9]?
**A.** < 0.01 µM

**Q.** What about the TGI [9] of the same molecule?
**A.** > 100 µM

**Q.** And the GI50 [10]?
**A.** < 0.01 µM

**Q.** For `CCOc1cc(C(C)(C)C)ccc1C1=N[C@H](c2ccc(Cl)cc2)[C@H](c2ccc(Cl)cc2)N1C(=O)N1CCN(CC#Cc2cccc3c2CN([C@@H]2CCC(=O)NC2=O)C3=O)CC1`, which GI50 [1] is on record?
**A.** 4.87 µM

**Q.** What about the TGI [1] of the same molecule?
**A.** > 100 µM

**Q.** What about the GI50 [2] of the same molecule?
**A.** 1.97 µM

**Q.** What about the TGI [2] of the same molecule?
**A.** > 36.3 µM

**Q.** And the GI50 [3]?
**A.** 2.66 µM

**Q.** What about the TGI [3] of the same molecule?
**A.** > 100 µM

**Q.** What about the GI50 [4] of the same molecule?
**A.** 0.0712 µM

**Q.** And the TGI [4]?
**A.** > 100 µM

**Q.** What about the GI50 [5] of the same molecule?
**A.** 8.14 µM

**Q.** And the TGI [5]?
**A.** > 100 µM

**Q.** What about the GI50 [6] of the same molecule?
**A.** 2.38 µM

**Q.** What about the TGI [6] of the same molecule?
**A.** 11.7 µM

**Q.** And the GI50 [7]?
**A.** 6.59 µM

**Q.** What about the TGI [7] of the same molecule?
**A.** > 77.3 µM

**Q.** And the GI50 [8]?
**A.** 0.085 µM

**Q.** And the TGI [8]?
**A.** 18.4 µM

**Q.** And the GI50 [9]?
**A.** 2.98 µM

**Q.** What about the TGI [9] of the same molecule?
**A.** 13.6 µM

**Q.** What about the GI50 [10] of the same molecule?
**A.** 6.95 µM

**Q.** And the TGI [10]?
**A.** > 88.9 µM

**Q.** `CN(C)CCC(=O)N1C/C(=C\c2ccc(Cl)c(Cl)c2)C(=O)/C(=C/c2ccc(Cl)c(Cl)c2)C1` was tested. Which TGI [1] did it give?
**A.** 0.867 µM

**Q.** And the TGI [2]?
**A.** 0.331 µM

**Q.** What about the TGI [3] of the same molecule?
**A.** 0.572 µM

**Q.** And the TGI [4]?
**A.** 0.701 µM

**Q.** What about the TGI [5] of the same molecule?
**A.** 1.5 µM

**Q.** What about the TGI [6] of the same molecule?
**A.** 1.38 µM

**Q.** And the TGI [7]?
**A.** 0.455 µM

**Q.** What about the TGI [8] of the same molecule?
**A.** 0.398 µM

**Q.** What about the TGI [9] of the same molecule?
**A.** 3.34 µM

**Q.** What about the TGI [10] of the same molecule?
**A.** 3.76 µM

**Q.** How did the GI50 [1] turn out when `[N-]=[N+]=NCCCn1c2c(c3ccc([N+](=O)[O-])cc3c1=O)C(=O)c1ccccc1-2` was run?
**A.** > 100 µM

**Q.** What about the TGI [1] of the same molecule?
**A.** > 100 µM

**Q.** And the GI50 [2]?
**A.** 8.17 µM

**Q.** What about the TGI [2] of the same molecule?
**A.** > 100 µM

**Q.** And the GI50 [3]?
**A.** 1.05 µM

**Q.** And the TGI [3]?
**A.** > 100 µM

**Q.** What about the GI50 [4] of the same molecule?
**A.** 4.19 µM

**Q.** What about the TGI [4] of the same molecule?
**A.** > 100 µM

**Q.** What about the GI50 [5] of the same molecule?
**A.** 9.25 µM

**Q.** What about the TGI [5] of the same molecule?
**A.** > 100 µM

**Q.** What about the GI50 [6] of the same molecule?
**A.** 8.65 µM

**Q.** And the TGI [6]?
**A.** > 100 µM

**Q.** What about the GI50 [7] of the same molecule?
**A.** 70.3 µM

**Q.** And the TGI [7]?
**A.** > 100 µM

**Q.** And the GI50 [8]?
**A.** 38 µM

**Q.** And the TGI [8]?
**A.** > 100 µM

**Q.** And the GI50 [9]?
**A.** > 100 µM

**Q.** What about the TGI [9] of the same molecule?
**A.** > 100 µM

**Q.** And the GI50 [10]?
**A.** > 100 µM

**Q.** And the TGI [10]?
**A.** > 100 µM
